The values below come from ChEMBL document CHEMBL5518203, “Rational Design of Benzobisheterocycle Metallo-β-Lactamase Inhibitors: A Tricyclic Scaffold Enhances Potency against Target Enzymes” (J Med Chem, 2024).

≈ marks a conversion by molar mass, not a printed value. Calls of active or inactive are those of the source. The calls are words filed in the database; no cut-off is given here.

Data set [1] addresses Metallo-beta-lactamase type 2 (Bacteria, UniProt C7C422). Description: Inhibition of his6-tagged NDM-1 (unknown origin) expressed in Escherichia coli BL21-DE3 incubated for 16 hrs.
Data set [2] is described as follows: Inhibition of his6-tagged SFH-1 (unknown origin) expressed in Escherichia coli BL21-DE3 incubated for 16 hrs. On the set-up: species or system Enzyme.
Data set [3] is described as follows: Inhibition of his6-tagged VIM-2 (unknown origin) expressed in Escherichia coli BL21-DE3 incubated for 16 hrs.
A short description of data set [4]: Inhibition of his6-tagged IMP-1 (unknown origin) expressed in Escherichia coli BL21-DE3 incubated for 16 hrs. On the set-up: species or system Bacteria.
Data set [5] in a line: Inhibition of his6-tagged L1 (unknown origin) expressed in Escherichia coli BL21-DE3 incubated for 16 hrs. On the set-up: species or system Enzyme inhibition.
Data set [6] in a line: Stability in human plasma assessed as half life by HPLC analysis. It is filed as ADME, cell-free.
In data set [7] the test system is Klebsiella pneumoniae. The experiment in a line: Potentiation of meropenem induced antibacterial activity against Klebsiella pneumoniae LC82 expressing IMP-13 assessed as meropenem MIC by CLSI based broth microdilution method. It is filed as functional.
Data set [8] deals with Klebsiella pneumoniae. The experiment in a line: Potentiation of meropenem induced antibacterial activity against Klebsiella pneumoniae 5639 expressing VIM-24 assessed as meropenem MIC by CLSI based broth microdilution method. It is filed as functional.
Data set [9] concerns Providencia rettgeri. Description: Potentiation of meropenem induced antibacterial activity against Providencia rettgeri 1.27 expressing NDM-1 assessed as meropenem MIC by CLSI based broth microdilution method. It is filed as functional.
The subject of data set [10] is Klebsiella pneumoniae. The experiment in a line: Potentiation of meropenem induced antibacterial activity against Klebsiella pneumoniae 1.37 expressing NDM-1 assessed as meropenem MIC by CLSI based broth microdilution method. It is filed as functional.
The target of data set [11] is Metallo-beta-lactamase type 2 (Bacteria) (UniProt C7C422). The experiment in a line: Inhibition of full length NDM-1 (unknown origin) expressed in Escherichia DH5alpha at 100 microg/ml measured at 1 to 5 hrs. The settings on record: dose 100.0 µg/ml, time 1-5 hrs.
Chain of Metallo-beta-lactamase type 2 (Bacteria) (C7C422 whole entry): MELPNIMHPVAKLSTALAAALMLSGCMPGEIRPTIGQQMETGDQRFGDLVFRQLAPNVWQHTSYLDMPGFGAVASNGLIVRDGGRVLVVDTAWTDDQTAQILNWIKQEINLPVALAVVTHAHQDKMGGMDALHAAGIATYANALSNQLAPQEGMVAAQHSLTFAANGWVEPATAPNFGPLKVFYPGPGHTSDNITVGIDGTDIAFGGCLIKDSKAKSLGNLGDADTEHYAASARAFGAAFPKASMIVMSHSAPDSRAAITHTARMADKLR
For data set [12], the system named is Escherichia coli. The experiment in a line: Potentiation of meropenem induced antibacterial activity against Escherichia coli 3.68 expressing NDM-1 assessed as meropenem MIC by CLSI based broth microdilution method. It is filed as functional.
For data set [13], the system named is Enterobacter cloacae. The experiment in a line: Potentiation of meropenem induced antibacterial activity against Enterobacter cloacae 1.28 expressing NDM-1 assessed as meropenem MIC by CLSI based broth microdilution method. It is filed as functional.
The subject of data set [14] is Klebsiella pneumoniae. Description: Potentiation of meropenem induced antibacterial activity against Klebsiella pneumoniae 1.41 expressing NDM-1 assessed as meropenem MIC by CLSI based broth microdilution method. It is filed as functional.
In data set [15] the test system is L929. Description: Cytotoxicity against mouse L929 cells assessed as reduction in cell viability at 100 microg/ml incubated for 24 hrs by MTT assay. It is filed as toxicity, cell-based. Particulars: l929, 24 h.
Data set [16] concerns Klebsiella pneumoniae. The experiment in a line: Potentiation of meropenem induced antibacterial activity against Klebsiella pneumoniae 7.15 expressing NDM-1 assessed as meropenem MIC by CLSI based broth microdilution method. It is filed as functional.
Data set [17] concerns Klebsiella pneumoniae. Description: Potentiation of meropenem induced antibacterial activity against Klebsiella pneumoniae 6907 expressing VIM-2 assessed as meropenem MIC by CLSI based broth microdilution method. It is filed as functional.
In data set [18] the test system is Enterobacter cloacae. Description: Potentiation of meropenem induced antibacterial activity against Enterobacter cloacae 6.31 expressing NDM-1 assessed as meropenem MIC by CLSI based broth microdilution method. It is filed as functional.
The test system of data set [19] is Providencia rettgeri. Description: Antibacterial activity against Providencia rettgeri 1.27 assessed as inhibition of bacterial growth by CLSI based broth microdilution method. It is filed as functional.
Data set [20] relates to Klebsiella pneumoniae. The experiment in a line: Antibacterial activity against Klebsiella pneumoniae 5639 assessed as inhibition of bacterial growth by CLSI based broth microdilution method. It is filed as functional.
Data set [21] relates to Klebsiella pneumoniae. The experiment in a line: Antibacterial activity against Klebsiella pneumoniae 7.15 assessed as inhibition of bacterial growth by CLSI based broth microdilution method. It is filed as functional.
The test system of data set [22] is Klebsiella pneumoniae. Description: Antibacterial activity against Klebsiella pneumoniae 1.37 assessed as inhibition of bacterial growth by CLSI based broth microdilution method. It is filed as functional.
In data set [23] the test system is Enterobacter cloacae. The experiment in a line: Antibacterial activity against Enterobacter cloacae 6.31 assessed as inhibition of bacterial growth by CLSI based broth microdilution method. It is filed as functional.
In data set [24] the test system is Klebsiella pneumoniae. Description: Antibacterial activity against Klebsiella pneumoniae 1.41 assessed as inhibition of bacterial growth by CLSI based broth microdilution method. It is filed as functional.
Data set [25] has as its system Klebsiella pneumoniae. The experiment in a line: Antibacterial activity against Klebsiella pneumoniae LC82 assessed as inhibition of bacterial growth by CLSI based broth microdilution method. It is filed as functional.
Data set [26] has as its system Klebsiella pneumoniae. The experiment in a line: Antibacterial activity against Klebsiella pneumoniae 6907 assessed as inhibition of bacterial growth by CLSI based broth microdilution method. It is filed as functional.
The test system of data set [27] is Enterobacter cloacae. Description: Antibacterial activity against Enterobacter cloacae 1.28 assessed as inhibition of bacterial growth by CLSI based broth microdilution method. It is filed as functional.

Chain of Metallo-beta-lactamase type 2 (C7C422 whole entry): as above

On to `O=C(O)[C@@H]1CS[C@H]2CS[C@H](CS)N21`, for which the IC50 in data set [1] came out at 13 µM; in [2] (read-out: IC50) it was 0.79 µM; in data set [3] (read-out: IC50), 8.5 µM; in [4] (read-out: IC50), 17.3 µM; in data set [5] (read-out: IC50) it was 22 µM. Further, the t1/2 in data set [6] is 0.383 h.
Turning to `CCOC(=O)[C@@H]1CS[C@H]2CS[C@H](CS)N21`, the IC50 in [1] is 2.7 µM; in data set [2] (read-out: IC50), 5.5 µM; in [3] (read-out: IC50), 0.17 µM; in data set [4] (read-out: IC50) it was 0.26 µM; in data set [5] (read-out: IC50), 6.9 µM.
Consider `NCCOC(=O)[C@@H]1CS[C@H]2CS[C@H](CS)N21`, for which the IC50 in data set [1] was 53 µM; in data set [2], “Not Active”; in [5] (read-out: IC50), 58 µM.
In the case of `CCOC(=O)[C@]12CS[C@H](CS)N1[C@H](C(=O)O)CS2`, the half-maximal inhibitory concentration (IC50) in data set [1] was 13 µM; in data set [2], “Not Active”; in data set [3], “Not Active”; in data set [4] it was “Not Active”; in [5], “Not Active”.
Regarding `O=C(NCc1ccccc1)[C@@H]1CS[C@H]2CS[C@H](CS)N21`, the figures for the IC50 in data set [1], in data set [2] and in data set [5] (read-out: IC50) were 7.7 µM, “Not Active” and 8.9 µM, respectively.
On the same counts, the results for `Nc1nc(COC(=O)[C@@H]2CS[C@H]3CS[C@H](CS)N32)cs1` are 27 µM, “Not Active” and 30 µM.
For `COc1ccc(CNC(=O)[C@@H]2CS[C@H]3CS[C@H](CS)N32)cc1`, in that order: 52 µM, “Not Active” and 24 µM.
Consider `O=C(O)[C@@H]1CS[C@H]2CS[C@H](CCS)N21`, for which the IC50 in [1] is 3.1 µM; in data set [2] it was “Not Active”; in [3], “Not Active”; in data set [4], “Not Active”; in data set [5] (read-out: IC50), 12 µM.
Take `O=C(Nc1ccccc1)[C@@H]1CS[C@H]2CS[C@H](CS)N21`: the IC50 in [1] is 20 µM; in data set [2], “Not Active”; in data set [5] (read-out: IC50), 15 µM.
In the case of `CC(C)(C)OC(=O)NCCOC(=O)[C@@H]1CS[C@H]2CS[C@H](CS)N21`, the IC50 in [1] was 7.9 µM; in data set [2], “Not Active”; in data set [5] (read-out: IC50), 5.4 µM.
On the same counts, the results for `Nc1ccccc1NC(=O)[C@@H]1CS[C@H]2CS[C@H](CS)N21` are 29 µM, “Not Active” and 32 µM.
For the compound `SCC[C@H]1SC[C@@H]2SCCN21` (racemic), the half-inhibitory concentration (IC50) amounted to 8.3 µM in data set [1]; 55 µM in [2] (read-out: IC50); 1.2 µM in data set [3] (read-out: IC50); 5.8 µM in [4] (read-out: IC50); 7.8 µM in [5] (read-out: IC50).
Consider `SC[C@H]1SC[C@@H]2SCCN21` (racemic), for which the IC50 in [1] came out at 1.2 µM; in data set [2] (read-out: IC50) it was 7.5 µM; in data set [3] (read-out: IC50), 0.88 µM; in data set [4] (read-out: IC50), 1.09 µM; in data set [5] (read-out: IC50), 4.9 µM.
On to `SC[C@H]1SC[C@@H]2Sc3ccccc3N21` (racemic), for which the 50% inhibitory concentration (IC50) in data set [1] came to 0.29 µM; in data set [2] (read-out: IC50), 1.4 µM; in data set [3] (read-out: IC50), 0.063 µM; in data set [4] (read-out: IC50) it was 0.088 µM; in data set [5] (read-out: IC50) it was 0.67 µM. Besides, the minimal inhibitory concentration (MIC) in [7] is 0.125 µg/mL; in data set [8], 0.125 µg/mL; in [9], 32 µg/mL; in [10] it was 16 µg/mL; in [12], 32 µg/mL; in data set [13], 8 µg/mL. Besides, the MIC turned out to be 8 µg/mL in data set [14], 32 µg/mL in data set [16], 0.125 µg/mL in [17] and 16 µg/mL in [18]. The inhibition result in data set [11] was “Active”. The Activity entry in data set [15] (dose 100 µg/ml) is recorded as “Non-Toxic”. Besides, the t1/2 in data set [6] was found to be 2.62 h.
For `SC[C@H]1SC[C@@H]2Nc3ccccc3N21` (relative stereo), the IC50 in [2] (read-out: IC50) is 3.7 µM; in [3] (read-out: IC50), 1.4 µM; in [4] (read-out: IC50) it was 1.01 µM; in [5] (read-out: IC50) it was 0.62 µM. Further, the Activity in [15] (at 100 µg/mL) is on record as 20%. Besides, in [6], the t1/2 was 2.45 h.
Consider `C[C@@H](O)[C@H]1C(=O)N2C(C(=O)O)=C(S[C@@H]3CN[C@H](C(=O)N(C)C)C3)[C@H](C)[C@H]12` [MEROPENEM], for which the minimum inhibitory concentration (MIC) came to 128 µg/mL (≈ 334 µM) in data set [19]; 4 µg/mL (≈ 10.4 µM) in [20]; 128 µg/mL (≈ 334 µM) in data set [21]; 64 µg/mL (≈ 167 µM) in data set [22]; 54 µg/mL (≈ 141 µM) in [23]; 128 µg/mL (≈ 334 µM) in data set [24]. Also, the minimum inhibitory concentration (MIC) came to 1 µg/mL (≈ 2.61 µM) in data set [25], 8 µg/mL (≈ 20.9 µM) in data set [26] and 128 µg/mL (≈ 334 µM) in data set [27].
